Tests used:
Assay type in all cases: in vivo
[1] = tested on: giant foxtail (SETFA; Setaria faberi); assay: Test I pre-/postemergence, mixtures of Cpd. No. 20 with saflufenacil or pyroxasulfone; details: for Plant response rating (0 to 100 scale): SETFA
Text: (§1) This test evaluated the effect of mixtures of Cpd. No. 20 with saflufenacil or pyroxasulfone on several plant species. Seeds of plant species selected from corn (ZEAMD; Zea mays, cv. ‘Pioneer 1184’), soybean (GLXMA; Glycine max, cv. Pioneer 35T58), giant foxtail (SETFA; Setaria faberi), palmer amaranth (AMAPA; Amaranthus palmeri), common waterhemp (AMATU; Amaranthus rudis), mare's tail (ERICA; Conyza canadensis), and common ragweed (AMBEL; Ambrosia artemisiifolia) were planted in pots containing Tama Silt Loam soil and treated preemergence with a directed soil spray using test chemicals formulated in a non-phytotoxic solvent mixture which included a surfactant.
(§2) At the same time, plants selected from these crop and weed species were planted in pots containing Redi-Earth® planting medium (Scotts Company, 14111 Scottslawn Road, Marysville, Ohio 43041) comprising spaghnum peat moss, vermiculite, wetting agent and starter nutrients and treated postemergence with test chemicals formulated in the same manner. Plants ranged in height from 2 to 10 cm and were in the one- to two-leaf stage for the postemergence treatment. Treated plants and untreated controls were maintained in a greenhouse for approximately 14-21 d, after which time all treated plants were compared to untreated controls and visually evaluated for injury. Plant response ratings, summarized in Tables 11 to 14, are based on a 0 to 100 scale where 0 is no effect and 100 is complete control. A dash (-) response means no test result. Test results are presented as a mean of 4 reps.

[2] = tested on: common ragweed (AMBEL; Ambrosia artemisiifolia); assay: Test J pre-/postemergence, mixtures of Cpd. No. 20 with (b15C2)
Text: as §1, with “(b15C2)” for “saflufenacil or pyroxasulfone”
as §2, with “J1 & J2,” for “11 to 14,”

[3] = tested on: palmer amaranth (AMAPA; Amaranthus palmeri); assay: as above
Text: as §1, with “(b15C2)” for “saflufenacil or pyroxasulfone”
as §2, with “J1 & J2,” for “11 to 14,”

[4] = tested on: common waterhemp (AMATU; Amaranthus rudis); assay: as above
Text: as §1, with “(b15C2)” for “saflufenacil or pyroxasulfone”
as §2, with “J1 & J2,” for “11 to 14,”

[5] = tested on: mare's tail (ERICA; Conyza canadensis); assay: as above
Text: as §1, with “(b15C2)” for “saflufenacil or pyroxasulfone”
as §2, with “J1 & J2,” for “11 to 14,”

[6] = tested on: soybean (GLXMA; Glycine max, cv. Pioneer 35T58); assay: as above
Text: as §1, with “(b15C2)” for “saflufenacil or pyroxasulfone”
as §2, with “J1 & J2,” for “11 to 14,”

[7] = tested on: giant foxtail (SETFA; Setaria faberi); assay: as above
Text: as §1, with “(b15C2)” for “saflufenacil or pyroxasulfone”
as §2, with “J1 & J2,” for “11 to 14,”

[8] = tested on: corn (ZEAMD; Zea mays, cv. ‘Pioneer 1184’); assay: as above
Text: as §1, with “(b15C2)” for “saflufenacil or pyroxasulfone”
as §2, with “J1 & J2,” for “11 to 14,”

`Cc1ccc2ccc(C)c(-c3c(O)c(Cl)nn(C)c3=O)c2c1` [Cpd. No. 20, 6-chloro-4-(2,7-dimethyl-1-naphthalenyl)-5-hydroxy-2-methyl-3(2H)-pyridazinone] was tested, and the “Plant response rating (0 to 100 scale)” value ([1]; Preemergence, Cpd. No. 20 8 g a.i./ha alone) was 25, the “SETFA plant response rating, 0 to 100 scale” value (from here on “SETFA plant response rating”) ([1]; postemergence, 8 g a.i./ha) was 55 and the “SETFA plant response rating” value ([1]; postemergence, 16 g a.i./ha) was 80. The “SETFA plant response rating” value ([1]; postemergence, 31 g a.i./ha) was 76, the “SETFA plant response rating” value ([1]; postemergence, 62 g a.i./ha) was 78 and the “SETFA plant response rating” value ([1]; preemergence, 8 g a.i./ha) was 25. For the same compound, the “SETFA plant response rating” value ([1]; preemergence, 16 g a.i./ha) was 39, the “SETFA plant response rating” value ([1]; preemergence, 31 g a.i./ha) was 84 and the “SETFA plant response rating” value ([1]; preemergence, 62 g a.i./ha) was 99. For the same compound, the “Plant response rating (0 to 100 scale)” value ([1]; preemergence, Cpd. No. 20 16 g a.i./ha alone) was 39, the “Plant response rating (0 to 100 scale)” value ([1]; preemergence, Cpd. No. 20 31 g a.i./ha alone) was 84 and the “Plant response rating (0 to 100 scale)” value ([1]; preemergence, Cpd. No. 20 62 g a.i./ha alone) was 99. For the same compound, the “AMBEL plant response rating, 0 to 100 scale” value (shortened to “AMBEL plant response rating”) ([2]; postemergence, 8 g a.i./ha) was 86, the “AMBEL plant response rating” value ([2]; postemergence, 16 g a.i./ha) was 93 and the “AMBEL plant response rating” value ([2]; postemergence, 31 g a.i./ha) was 91. For the same compound, the “AMBEL plant response rating” value ([2]; postemergence, 62 g a.i./ha) was 95, the “AMBEL plant response rating” value ([2]; preemergence, 8 g a.i./ha) was 0 and the “AMBEL plant response rating” value ([2]; preemergence, 16 g a.i./ha) was 100. For the same compound, the “AMBEL plant response rating” value ([2]; preemergence, 31 g a.i./ha) was 86, the “AMBEL plant response rating” value ([2]; preemergence, 62 g a.i./ha) was 96 and the “AMAPA plant response rating, 0 to 100 scale” value (“AMAPA plant response rating” below) ([3]; postemergence, 8 g a.i./ha) was 18. The “AMAPA plant response rating” value ([3]; postemergence, 16 g a.i./ha) was 15, the “AMAPA plant response rating” value ([3]; postemergence, 31 g a.i./ha) was 33 and the “AMAPA plant response rating” value ([3]; postemergence, 62 g a.i./ha) was 63. The “AMAPA plant response rating” value ([3]; preemergence, 8 g a.i./ha) was 20, the “AMAPA plant response rating” value ([3]; preemergence, 16 g a.i./ha) was 46 and the “AMAPA plant response rating” value ([3]; preemergence, 31 g a.i./ha) was 48. For the same compound, the “AMAPA plant response rating” value ([3]; preemergence, 62 g a.i./ha) was 60, the “AMATU plant response rating, 0 to 100 scale” value (from here on “AMATU plant response rating”) ([4]; postemergence, 8 g a.i./ha) was 55 and the “AMATU plant response rating” value ([4]; postemergence, 16 g a.i./ha) was 53. The “AMATU plant response rating” value ([4]; postemergence, 31 g a.i./ha) was 71, the “AMATU plant response rating” value ([4]; postemergence, 62 g a.i./ha) was 86 and the “AMATU plant response rating” value ([4]; preemergence, 8 g a.i./ha) was 0. The “AMATU plant response rating” value ([4]; preemergence, 16 g a.i./ha) was 20, the “AMATU plant response rating” value ([4]; preemergence, 31 g a.i./ha) was 29 and the “AMATU plant response rating” value ([4]; preemergence, 62 g a.i./ha) was 50. The “ERICA plant response rating, 0 to 100 scale” value (shortened to “ERICA plant response rating”) ([5]; postemergence, 8 g a.i./ha) was 85, the “ERICA plant response rating” value ([5]; postemergence, 16 g a.i./ha) was 90 and the “ERICA plant response rating” value ([5]; postemergence, 31 g a.i./ha) was 90. The “ERICA plant response rating” value ([5]; postemergence, 62 g a.i./ha) was 90, the “ERICA plant response rating” value ([5]; preemergence, 8 g a.i./ha) was 58 and the “ERICA plant response rating” value ([5]; preemergence, 16 g a.i./ha) was 90. For the same compound, the “ERICA plant response rating” value ([5]; preemergence, 31 g a.i./ha) was 94, the “ERICA plant response rating” value ([5]; preemergence, 62 g a.i./ha) was 95 and the “GLXMA plant response rating, 0 to 100 scale” value (“GLXMA plant response rating” below) ([6]; postemergence, 8 g a.i./ha) was 3. The “GLXMA plant response rating” value ([6]; postemergence, 16 g a.i./ha) was 4, the “GLXMA plant response rating” value ([6]; postemergence, 31 g a.i./ha) was 9 and the “GLXMA plant response rating” value ([6]; postemergence, 62 g a.i./ha) was 6. For the same compound, the “GLXMA plant response rating” value ([6]; preemergence, 8 g a.i./ha) was 0, the “GLXMA plant response rating” value ([6]; preemergence, 16 g a.i./ha) was 0 and the “GLXMA plant response rating” value ([6]; preemergence, 31 g a.i./ha) was 0. For the same compound, the “GLXMA plant response rating” value ([6]; preemergence, 62 g a.i./ha) was 20, the “SETFA plant response rating” value ([7]; postemergence, 8 g a.i./ha) was 34 and the “SETFA plant response rating” value ([7]; postemergence, 16 g a.i./ha) was 69. The “SETFA plant response rating” value ([7]; postemergence, 31 g a.i./ha) was 75, the “SETFA plant response rating” value ([7]; postemergence, 62 g a.i./ha) was 80 and the “SETFA plant response rating” value ([7]; preemergence, 8 g a.i./ha) was 15. The “SETFA plant response rating” value ([7]; preemergence, 16 g a.i./ha) was 63, the “SETFA plant response rating” value ([7]; preemergence, 31 g a.i./ha) was 78 and the “SETFA plant response rating” value ([7]; preemergence, 62 g a.i./ha) was 89. For the same compound, the “ZEAMD plant response rating, 0 to 100 scale” value (from here on “ZEAMD plant response rating”) ([8]; postemergence, 8 g a.i./ha) was 0, the “ZEAMD plant response rating” value ([8]; postemergence, 16 g a.i./ha) was 0 and the “ZEAMD plant response rating” value ([8]; postemergence, 31 g a.i./ha) was 0. For the same compound, the “ZEAMD plant response rating” value ([8]; postemergence, 62 g a.i./ha) was 0, the “ZEAMD plant response rating” value ([8]; preemergence, 8 g a.i./ha) was 0 and the “ZEAMD plant response rating” value ([8]; preemergence, 16 g a.i./ha) was 0. For the same compound, the “ZEAMD plant response rating” value ([8]; preemergence, 31 g a.i./ha) was 0 and the “ZEAMD plant response rating” value ([8]; preemergence, 62 g a.i./ha) was 0.
